Values after ≈ are worked out from the molar mass of the structure shown.
What was measured:
Candida albicans = assay: Antifungal activity against Candida albicans CA980001 by alamar blue assay; type: functional
Aspergillus fumigatus = assay: Antifungal activity against Aspergillus fumigatus AF980003 by alamar blue assay; type: functional

Row | SMILES | MIC (Candida albicans) | MIC (Aspergillus fumigatus)
1 | OC(Cn1cncn1)(Cn1nc2ccccc2n1)c1ccc(Cl)cc1Cl (stereo unspecified) | 0.01 µg/mL (≈ 0.0257 µM) | > 100 µg/mL
2 | O[C@@](Cn1cncn1)(Cn1nnc2ccccc21)c1ccc(F)cc1F | 0.025 µg/mL (≈ 0.0702 µM) | > 100 µg/mL
3 | O[C@@](Cn1cncn1)(Cn1ncc2ccccc21)c1ccc(F)cc1F | 0.019 µg/mL (≈ 0.0535 µM) | 24 µg/mL (≈ 67.5 µM)
4 | O[C@@](Cn1cncn1)(Cn1ncc2ccccc21)c1ccc(Cl)cc1Cl | 0.0007 µg/mL (≈ 0.0018 µM) | > 100 µg/mL
5 | O[C@@](Cn1cncn1)(Cn1nnc2ccccc21)c1ccc(Cl)cc1Cl | 0.02 µg/mL (≈ 0.0514 µM) | > 100 µg/mL
6 | O[C@@](Cn1cncn1)(Cn1cnc2ccccc21)c1ccc(F)cc1F | 0.233 µg/mL (≈ 0.656 µM) | > 100 µg/mL
7 | O[C@@](Cn1cncn1)(Cn1cnc2ccccc21)c1ccc(Cl)cc1Cl | 0.026 µg/mL (≈ 0.067 µM) | > 100 µg/mL
8 | O[C@@](Cn1cncn1)(Cn1ccc2cccnc21)c1ccc(F)cc1F | 0.007 µg/mL (≈ 0.0197 µM) | 21 µg/mL (≈ 59.1 µM)
9 | O[C@@](Cn1cncn1)(Cn1ccc2cccnc21)c1ccc(Cl)cc1Cl | 0.0031 µg/mL (≈ 0.00798 µM) | 29 µg/mL (≈ 74.7 µM)
10 | O[C@](CN1CCc2ccccc21)(Cn1cncn1)c1ccc(Cl)cc1Cl | 2.72 µg/mL (≈ 6.99 µM) | > 100 µg/mL
11 | O[C@](CNc1ccc2[nH]ccc2c1)(Cn1cncn1)c1ccc(Cl)cc1Cl | 0.026 µg/mL (≈ 0.0646 µM) | > 100 µg/mL
12 | O=Cc1cn(C[C@@](O)(Cn2cncn2)c2ccc(Cl)cc2Cl)c2ccccc12 | 0.045 µg/mL (≈ 0.108 µM) | > 100 µg/mL
13 | CCOC(=O)Cc1cn(C[C@@](O)(Cn2cncn2)c2ccc(Cl)cc2Cl)c2ccccc12 | 0.006 µg/mL (≈ 0.0127 µM) | > 100 µg/mL
14 | CCOC(=O)CCc1cn(C[C@@](O)(Cn2cncn2)c2ccc(Cl)cc2Cl)c2ccccc12 | 0.33 µg/mL (≈ 0.677 µM) | > 100 µg/mL
15 | O=C1CCCc2c1ccn2C[C@@](O)(Cn1cncn1)c1ccc(Cl)cc1Cl | 0.07 µg/mL (≈ 0.173 µM) | > 100 µg/mL
16 | OC(Cn1cncn1)(Cn1nc2ccccc2n1)c1ccc(F)cc1F (stereo unspecified) | > 0.036 µg/mL | > 100 µg/mL
17 | C[C@@H]1[C@H](O)[C@@H](C)/C=C/C=C/C=C/C=C/C=C/C=C/C=C/[C@H](O[C@@H]2O[C@H](C)[C@@H](O)[C@H](N)[C@@H]2O)C[C@@H]2O[C@](O)(C[C@@H](O)C[C@@H](O)[C@H](O)CC[C@@H](O)C[C@@H](O)CC(=O)O[C@H]1C)C[C@H](O)[C@H]2C(=O)O [AMPHOTERICIN B] | 0.12 µg/mL (≈ 0.13 µM) | 0.14 µg/mL (≈ 0.152 µM)
18 | OC(Cn1cncn1)(Cn1cncn1)c1ccc(F)cc1F [FLUCONAZOLE] | 0.02 µg/mL (≈ 0.0653 µM) | 
19 | CCC(C)n1ncn(-c2ccc(N3CCN(c4ccc(OCC5COC(Cn6cncn6)(c6ccc(Cl)cc6Cl)O5)cc4)CC3)cc2)c1=O (stereo unspecified) [ITRACONAZOLE] |  | 0.5 µg/mL (≈ 0.709 µM)
